Data published in patent publication EP0428132A1, “Pradimicin derivatives” (Bristol-Myers Squibb Company, priority 1989, dated 1991).
In brackets after ≈: the same amount, converted by molar mass.

Assays:
Candida albicans A25578 = experiment: In vitro antifungal activity, serial agar dilution method (Table 1a); format: cell-based; details: A25578, YM agar (pH 7.0, Difco), 30°C for 2 days (yeast) or 4 days (filamentous fungi), read-out: MICs, Candida albicans A25578
Protocol: (§1) The inoculum size was adjusted to 10⁶ cells/ml, and a volume of approximately 0.003 ml of fungal suspension was applied to the surface of the antibiotic containing agar plates with a multiinoculator. After incubation, the lowest concentration of antibiotic causing virtually complete inhibition of fungal growth was determined as the minimum inhibitory concentration (MIC).

Candida albicans A9540 [1] = experiment: as above; format: cell-based; details: A9540, YM agar (pH 7.0, Difco), 30°C for 2 days (yeast) or 4 days (filamentous fungi), read-out: MICs, Candida albicans A9540
Protocol: as §1

[2] = test system: Candida paratropicalis A25825; experiment: as above; format: cell-based; details: YM agar (pH 7.0, Difco); 30°C for 2 days (yeast) or 4 days (filamentous fungi); read-out: MICs, Candida paratropicalis A25825
Protocol: as §1

[3] = test system: Candida pseudotropicalis A25802; experiment: as above; format: cell-based; details: Kluyveromyces marxianus, YM agar (pH 7.0, Difco), 30°C for 2 days (yeast) or 4 days (filamentous fungi), read-out: MICs, Candida pseudotropicalis A25802
Protocol: as §1

[4] = test system: Candida tropicalis A25809; experiment: as above; format: cell-based; details: YM agar (pH 7.0, Difco), 30°C for 2 days (yeast) or 4 days (filamentous fungi), read-out: MICs, Candida tropicalis A25809
Protocol: as §1

[5] = test system: Candida tropicalis A25812; experiment: as above; format: cell-based; details: A25812, YM agar (pH 7.0, Difco), 30°C for 2 days (yeast) or 4 days (filamentous fungi), read-out: MICs, Candida tropicalis A25812
Protocol: as §1

[6] = test system: Cryptococcus neoformans A15053; experiment: as above; format: cell-based; details: A15053, YM agar (pH 7.0, Difco), 30°C for 2 days (yeast) or 4 days (filamentous fungi), read-out: MICs, Cryptococcus neoformans A15053
Protocol: as §1

[7] = test system: Microsporum canis WW10218; experiment: as above; format: cell-based; details: WW10218, pH 7, read-out: MICs, Microsporum canis WW10218
Protocol: as §1

[8] = test system: Microsporum gypseum WW1107; experiment: as above; format: cell-based; details: Nannizzia gypsea, YM agar (pH 7.0, Difco), 30°C for 2 days (yeast) or 4 days (filamentous fungi), read-out: MICs, Microsporum gypseum WW1107
Protocol: as §1

[9] = test system: Saccharomyces cerevisiae A25803; experiment: as above; format: cell-based; details: YM agar (pH 7.0, Difco), 30°C for 2 days (yeast) or 4 days (filamentous fungi), read-out: MICs, Saccharomyces cerevisiae A25803
Protocol: as §1

[10] = test system: Trichophyton mentagrophytes A26771; experiment: as above; format: cell-based; details: A26771, YM agar (pH 7.0, Difco), 30°C for 2 days (yeast) or 4 days (filamentous fungi), read-out: MICs, Trichophyton mentagrophytes A26771
Protocol: as §1

[11] = test system: Trichophyton rubrum A26761; experiment: as above; format: cell-based; details: A26761, pH 7, read-out: MICs, Trichophyton rubrum A26761
Protocol: as §1

[12] = Water solubility, protocol I (PBS, HPLC); format: physicochemical; details: Method I: PBS without CaCl₂ and MgCl₂.6H₂O
Protocol: The supernatant (2 µL) was analyzed by HPLC using the conditions specified for each compound in the Experimental Section. […] When not soluble, an additional amount of PBS (x µL) was added, sonicated, and centrifuged. When visibly soluble, the solution (2 µL) was injected to HPLC and the peak area was used for the known concentration of the sample.

FA21436 = experiment: In vitro antifungal activity, serial agar dilution method (Table 1); format: cell-based, Asoergukkys flavus; details: 40 h, pH 7, read-out: MIC, Asoergukkys flavus FA21436
Protocol: as §1, with “(MIC). Table 1. [table]” for “(MIC).”

[13] = test system: Aspergillus fumigatus IAM2034; experiment: as above; format: cell-based; details: Aspergillus fumigatus, IAM2034; Sabouraud dextrose agar (pH 7.0); 28°C for 40 hours
Protocol: as §1, with “(MIC). Table 1. [table]” for “(MIC).”

[14] = test system: Aspergillus fumigatus IAM2530; experiment: as above; format: cell-based; details: Aspergillus fumigatus, IAM2530; Sabouraud dextrose agar (pH 7.0); 28°C for 40 hours
Protocol: as §1, with “(MIC). Table 1. [table]” for “(MIC).”

[15] = test system: Blastomyces dermatidis D40; experiment: as above; format: cell-based; details: Blastomyces, D40, 40 h, pH 7, read-out: MIC, Blastomyces dermatidis D40
Protocol: as §1, with “(MIC). Table 1. [table]” for “(MIC).”

Candida albicans A9540 [16] = experiment: as above; format: cell-based; details: Candida albicans, A9540; Sabouraud dextrose agar (pH 7.0); 28°C for 40 hours
Protocol: as §1, with “(MIC). Table 1. [table]” for “(MIC).”

Candida albicans IAM4888 = experiment: as above; format: cell-based; details: Candida albicans, IAM4888; Sabouraud dextrose agar (pH 7.0); 28°C for 40 hours
Protocol: as §1, with “(MIC). Table 1. [table]” for “(MIC).”

[17] = test system: Cryptococcus neoformans D49; experiment: as above; format: cell-based; details: Cryptococcus neoformans, D49, 40 h, pH 7, read-out: MIC, Cryptococcus neoformans D49
Protocol: as §1, with “(MIC). Table 1. [table]” for “(MIC).”

[18] = test system: Cryptococcus neoformans IAM4514; experiment: as above; format: cell-based; details: Cryptococcus neoformans, IAM4514; Sabouraud dextrose agar (pH 7.0); 28°C for 40 hours
Protocol: as §1, with “(MIC). Table 1. [table]” for “(MIC).”

[19] = test system: Fusarium moniliforme A2284; experiment: as above; format: cell-based; details: Fusarium verticillioides, A2284; Sabouraud dextrose agar (pH 7.0); 28°C for 40 hours
Protocol: as §1, with “(MIC). Table 1. [table]” for “(MIC).”

Mucor spinosus IFO5317 = experiment: as above; format: cell-based; details: Mucor spinosus, IFO5317; Sabouraud dextrose agar (pH 7.0); 28°C for 40 hours
Protocol: as §1, with “(MIC). Table 1. [table]” for “(MIC).”

[20] = test system: Petriellidium boydii IFO8078; experiment: as above; format: cell-based; details: Scedosporium boydii, IFO8078; Sabouraud dextrose agar (pH 7.0); 28°C for 40 hours
Protocol: as §1, with “(MIC). Table 1. [table]” for “(MIC).”

[21] = test system: Sprotricosis schenckii IFO8158; experiment: as above; format: cell-based; details: 40 h, pH 7, read-out: MIC, Sprotricosis schenckii IFO8158
Protocol: as §1, with “(MIC). Table 1. [table]” for “(MIC).”

[22] = test system: Trichophyton mentagrophytes #4329; experiment: as above; format: cell-based; details: Trichophyton mentagrophytes; Sabouraud dextrose agar (pH 7.0); 28°C for 40 hours
Protocol: as §1, with “(MIC). Table 1. [table]” for “(MIC).”

[23] = test system: Trichophyton mentagrophytes D155; experiment: as above; format: cell-based; details: Trichophyton mentagrophytes, D155; Sabouraud dextrose agar (pH 7.0); 28°C for 40 hours
Protocol: as §1, with “(MIC). Table 1. [table]” for “(MIC).”

Row | MIC (FA21436) [µg/mL] | MIC [13] [µg/mL] | MIC [14] [µg/mL] | MIC [15] [µg/mL] | MIC (Candida albicans A9540 [16]) [µg/mL] | MIC (Candida albicans IAM4888) [µg/mL] | MIC [17] [µg/mL] | SMILES | MIC (Candida albicans A25578) [µg/mL] | MIC (Candida albicans A9540 [1]) [µg/mL] | MIC [2] [µg/mL] | MIC [3] [µg/mL] | MIC [4] [µg/mL] | MIC [5] [µg/mL] | MIC [6] [µg/mL] | MIC [7] [µg/mL] | MIC [8] [µg/mL] | MIC [9] [µg/mL] | MIC [10] [µg/mL] | MIC [11] [µg/mL] | solubility [12] [µg/mL] | other results
1 |  |  |  |  |  |  |  | CCOC(=O)CN(C)[C@@H]1[C@H](O)[C@@H](O)[C@H](O[C@H]2c3cc(C)c(C(=O)N[C@H](C)C(=O)O)c(O)c3-c3c(cc4c(c3O)C(=O)c3cc(OC)cc(O)c3C4=O)[C@@H]2O)O[C@@H]1C [Ex. 6, N-(ethoxycarbonylmethyl) pradimicin B] | 3.2 (≈ 4.03 µM) | 6.3 (≈ 7.93 µM) | 6.3 (≈ 7.93 µM) | 1.6 (≈ 2.01 µM) | 1.6 (≈ 2.01 µM) | 3.2 (≈ 4.03 µM) | 1.6 (≈ 2.01 µM) | 1.6 (≈ 2.01 µM) | 12.5 (≈ 15.7 µM) | 0.8 (≈ 1.01 µM) | 6.3 (≈ 7.93 µM) | 6.3 (≈ 7.93 µM) | > 4000 | 
2 | 100 (≈ 108 µM) | 100 (≈ 108 µM) | 100 (≈ 108 µM) | > 100 | 100 (≈ 108 µM) | 50 (≈ 54.1 µM) | 50 (≈ 54.1 µM) | COc1cc(O)c2c(c1)C(=O)c1c(cc3c(c1O)-c1c(cc(C)c(C(=O)N[C@H](C)C(=O)O)c1O)[C@H](O[C@@H]1O[C@H](C)[C@H](N(C)C/C=C/C(=O)O)[C@H](O[C@@H]4OC[C@@H](O)[C@H](O)[C@H]4O)[C@H]1O)[C@H]3O)C2=O [Ex. 13, N-(trans-3-carboxy-2-propenyl) pradimicin A] |  |  |  |  |  |  |  |  |  |  |  |  |  | MIC [18]: 25 µg/mL (≈ 27 µM); MIC [19]: > 100 µg/mL; MIC (Mucor spinosus IFO5317): > 100 µg/mL; MIC [20]: > 100 µg/mL; MIC [21]: 100 µg/mL (≈ 108 µM); MIC [22]: > 100 µg/mL; MIC [23]: > 100 µg/mL
3 |  |  |  |  |  |  |  | COc1cc(O)c2c(c1)C(=O)c1c(cc3c(c1O)-c1c(cc(C)c(C(=O)N[C@H](C)C(=O)O)c1O)[C@H](O[C@@H]1O[C@H](C)[C@H](N(C)C(=O)CN(C)C)[C@H](O)[C@H]1O)[C@H]3O)C2=O [Ex. 15, N-(N,N-dimethylglycyl) pradimicin B] | 3.2 (≈ 4.03 µM) | 6.3 (≈ 7.94 µM) | 6.3 (≈ 7.94 µM) | 1.6 (≈ 2.02 µM) | 3.2 (≈ 4.03 µM) | 6.3 (≈ 7.94 µM) | 3.2 (≈ 4.03 µM) | 6.4 (≈ 8.06 µM) | 12.5 (≈ 15.7 µM) | 3.2 (≈ 4.03 µM) | 12.5 (≈ 15.7 µM) | 2.5 (≈ 3.15 µM) | 2000 (≈ 2520 µM) | 
4 | > 50 | 12.5 (≈ 13.5 µM) | 12.5 (≈ 13.5 µM) | 50 (≈ 54 µM) | 6.3 (≈ 6.8 µM) | 6.3 (≈ 6.8 µM) | 3.4 (≈ 3.67 µM) | COc1cc(O)c2c(c1)C(=O)c1c(cc3c(c1O)-c1c(cc(C)c(C(=O)N[C@H](C)C(=O)O)c1O)[C@H](O[C@@H]1O[C@H](C)[C@H](N(C)C(=O)CN(C)C)[C@H](O[C@@H]4OC[C@@H](O)[C@H](O)[C@H]4O)[C@H]1O)[C@H]3O)C2=O [Ex. 16, N-(N,N-Dimethylglycyl) pradimicin A] |  |  |  |  |  |  |  |  |  |  |  |  |  | MIC [18]: 3.1 µg/mL (≈ 3.35 µM); MIC [19]: > 50 µg/mL; MIC (Mucor spinosus IFO5317): > 50 µg/mL; MIC [20]: > 50 µg/mL; MIC [21]: 6.3 µg/mL (≈ 6.8 µM); MIC [22]: 6.3 µg/mL (≈ 6.8 µM); MIC [23]: 6.3 µg/mL (≈ 6.8 µM)
